Source: publication PMC7670682 (BMC Pharmacology & Toxicology, 2020)
Entries after “also recorded” stand apart in the source; their conditions may differ. Like-named read-outs stand apart in the source and are kept apart here. Marks after values point to notes of the source that are not given here.

Columns and labels:
[1] = test system: OATP-B; parameters: method as in PMID 16415120; conditions: cited from earlier work
[2] = cited from earlier work
[3] = in vivo; conditions: male, Sprague Dawley, rat, po, 30 mg/kg
[4] = combined use with St. John’s wort, a CYP3A4 inducer; cited from earlier work
[5] = test system: CYP3A; conditions: in vitro, different CYP3A substrates; read-out: IC50 of CYP3A inhibition; cited from earlier work
[6] = after oral administration of imatinib; cited from earlier work
[7] = intragastric administration of green tea, rats
[8] = male, Sprague Dawley, rat, in vivo, po, 30 mg/kg
[9] = metabolite, rats, imatinib 30 mg/kg IG + KTZ 75 mg/kg/day 3 days
[10] = metabolite, rats, imatinib 30 mg/kg IG + h-GS 100 mg/kg/day 21 days
[11] = metabolite, rats, imatinib 30 mg/kg IG + h-GS 100 mg/kg/day 21 days, vs imatinib only
[12] = metabolite, rats, imatinib 30 mg/kg IG + h-GS 100 mg/kg/day 21 days, vs l-GS group
[13] = metabolite, rats, imatinib 30 mg/kg IG + h-GS 100 mg/kg/day 21 days, when GS dose was doubled
[14] = metabolite, rats, imatinib 30 mg/kg IG + h-GS and h-GT 100 mg/kg/day each 21 days
[15] = metabolite, rats, imatinib 30 mg/kg IG + h-GS and h-GT 100 mg/kg/day each 21 days, vs imatinib only
[16] = metabolite, rats, imatinib 30 mg/kg IG + h-GS and h-GT 100 mg/kg/day each 21 days, vs l-GS and l-GT group
[17] = metabolite, rats, imatinib 30 mg/kg IG + h-GT 100 mg/kg/day 21 days
[18] = metabolite, rats, imatinib 30 mg/kg IG + l-GS 50 mg/kg/day 21 days
[19] = metabolite, rats, imatinib 30 mg/kg IG + l-GT 50 mg/kg/day 21 days
[20] = metabolite, rats, imatinib 30 mg/kg IG only (control)
[21] = rats, imatinib 30 mg/kg IG + KTZ 75 mg/kg/day 3 days
[22] = rats, imatinib 30 mg/kg IG + h-GS 100 mg/kg/day 21 days
[23] = rats, imatinib 30 mg/kg IG + h-GS and h-GT 100 mg/kg/day each 21 days
[24] = rats, imatinib 30 mg/kg IG + h-GT 100 mg/kg/day 21 days
[25] = rats, imatinib 30 mg/kg IG + l-GS 50 mg/kg/day 21 days
[26] = rats, imatinib 30 mg/kg IG + l-GS and l-GT 50 mg/kg/day each 21 days
[27] = rats, imatinib 30 mg/kg IG + l-GT 50 mg/kg/day 21 days
[28] = rats, imatinib 30 mg/kg IG only (control)

For `Oc1cc(O)c2c(c1)O[C@H](c1ccc(O)c(O)c1)[C@@H](O)C2` [(+)-catechin], the “inhibition of estrone-3-sulfate uptake” value ([1]; concentration of 100 mM) is listed as 31.7%.
In the case of `Oc1cc(O)c2c(c1)O[C@H](c1ccc(O)c(O)c1)[C@H](O)C2` [EC, (−)-epicatechin], the “inhibition of estrone-3-sulfate uptake” value ([1]; concentration of 10 mM) is given as 27.2% and the bioavailability [2, 7] is given as 31.2%.
In the case of `Oc1cc(O)c2c(c1)O[C@H](c1cc(O)c(O)c(O)c1)[C@H](O)C2` [EGC, (−)-epigallocatechin], the “inhibition of estrone-3-sulfate uptake” value ([1]; concentration of 100 mM) is listed as 29.1% and the bioavailability ([2]; rat, in vivo, po) is listed as 13.7%.
For `O=C(O[C@@H]1Cc2c(O)cc(O)cc2O[C@@H]1c1cc(O)c(O)c(O)c1)c1cc(O)c(O)c(O)c1` [EGCG, (−)-epigallocatechin-3-gallate], the “inhibition of estrone-3-sulfate uptake” value ([1]; concentration of 10 mM) is listed as 29.5% and the bioavailability [2, 7] is listed as 0.1%.
With `Cc1ccc(NC(=O)c2ccc(CN3CCN(C)CC3)cc2)cc1Nc1nccc(-c2cccnc2)n1` [Imatinib, reference compound] the “AUC0∞” value [8] was 105,160.8 ± 75,643.2 ng^.h/mL, the tmax [8] was 4.8 ± 2.3 h and the “decrease in t0.5” value (rats, imatinib 30 mg/kg IG + h-GS 100 mg/kg/day 21 days, vs imatinib only) was “↓ 16.1%*”. The “decrease in t0.5” value (rats, imatinib 30 mg/kg IG + h-GS 100 mg/kg/day 21 days, vs imatinib only, listed as imatinib) was 16.1%, the “decrease in t0.5” value (rats, imatinib 30 mg/kg IG + h-GS and h-GT 100 mg/kg/day each 21 days, vs imatinib only) was 21.9% and the “decrease in t0.5” value (rats, imatinib 30 mg/kg IG + h-GS and h-GT 100 mg/kg/day each 21 days, vs l-GS and l-GT group) was 23.1%. For the same compound, the “decrease in t0.5” value (rats, imatinib 30 mg/kg IG + h-GT 100 mg/kg/day 21 days, vs imatinib only) was “↓ 15.8%*”, the “decrease in t0.5” value (rats, imatinib 30 mg/kg IG + h-GT 100 mg/kg/day 21 days, vs imatinib only, listed as imatinib) was 15.8% and the “increase in t0.5” value (rats, imatinib 30 mg/kg IG + l-GS and l-GT 50 mg/kg/day each 21 days, vs l-GS group) was 1.1 fold. For the same compound, the “increase in t0.5” value (rats, imatinib 30 mg/kg IG + l-GS and l-GT 50 mg/kg/day each 21 days, vs l-GT group) was 1.3 fold, the Cmax [3] was 6400 ± 3160 ng/mL and the “reduction of the area under the curve (AUC)” value [4] was 30%.
For `Cc1ccc(NC(=O)c2ccc(CN3CCNCC3)cc2)cc1Nc1nccc(-c2cccnc2)n1` [N-desmethyl imatinib], the t0.5 [9] was 9.9 ± 4.4 h, the tmax [9] was 7.5 ± 1.0 h and the MRT [10] was 9.5 ± 1.0 h. The t0.5 [10] was 7.1 ± 0.9 h, the tmax [10] was 4.7 ± 2.0 h and the “decrease in AUC0∞” value [11] was 73.0%. For the same compound, the “decrease in Cmax” value [11] was 67.8%, the “increase in CL/F” value [11] was 3.7 fold and the “increase in Vz/F” value [11] was 4.1 fold. The “decrease in AUC0∞” value [12] was 58.5%, the “decrease in Cmax” value [12] was 63.3% and the “increase in CL/F” value [12] was 2.5 fold. For the same compound, the “increase in Vz/F” value [12] was 2.9 fold, the “decrease in AUC0∞” value [13] was ~ 2 fold and the “decrease in Cmax” value [13] was ~ 2 fold. For the same compound, the MRT [14] was 11.9 ± 2.3 h, the tmax [14] was 4.8 ± 2.2 h and the “increase in t0.5” value (metabolite, rats, imatinib 30 mg/kg IG + h-GS and h-GT 100 mg/kg/day each 21 days, vs h-GS group) was 1.5 fold. The “increase in t0.5” value (metabolite, rats, imatinib 30 mg/kg IG + h-GS and h-GT 100 mg/kg/day each 21 days, vs h-GT group) was 1.4 fold, the “decrease in AUC0∞” value [15] was 72.1% and the “decrease in Cmax” value [15] was 71.5%. For the same compound, the “increase in CL/F” value [15] was 5.3 fold, the “increase in Vz/F” value [15] was 8.7 fold and the “increase in t0.5” value [15] was 1.6 fold. For the same compound, the “decrease in AUC0∞” value [16] was 75.8%, the “decrease in Cmax” value [16] was 71.9% and the “increase in CL/F” value [16] was 6.5 fold. For the same compound, the “increase in Vz/F” value [16] was 8.8 fold, the “increase in t0.5” value [16] was 1.3 fold and the “increase in the terminal half-life” value (metabolite, rats, imatinib 30 mg/kg IG + h-GS and h-GT 100 mg/kg/day each 21 days, vs other high dose groups (h-GS or h-GT, not specified)) was 1.4 fold. It also gave an MRT [17] of 11.9 ± 2.6 h, a tmax [17] of 5.2 ± 2.6 h and a Cmax [18] of 408.8 ± 113.6 ng/mL. For the same compound, the t0.5 [18] was 6.2 ± 0.5 h, the tmax [18] was 4.2 ± 1.0 h and the tmax (metabolite, rats, imatinib 30 mg/kg IG + l-GS and l-GT 50 mg/kg/day each 21 days) was 5.8 ± 2.6 h. For the same compound, the effect on pharmacokinetics (metabolite, rats, imatinib 30 mg/kg IG + l-GS and l-GT 50 mg/kg/day each 21 days, vs imatinib only) was “no significant effects; also recorded: not significantly affected”, the “increase in AUC0∞” value (metabolite, rats, imatinib 30 mg/kg IG + l-GS and l-GT 50 mg/kg/day each 21 days, vs l-GS group) was 1.8 fold and the “increase in AUC0∞” value (metabolite, rats, imatinib 30 mg/kg IG + l-GS and l-GT 50 mg/kg/day each 21 days, vs l-GT group) was 6.1 fold. The MRT [19] was 11.2 ± 1.8 h, the t0.5 [19] was 8.0 ± 0.7 h and the tmax [19] was 5.3 ± 1.6 h. For the same compound, the “AUC0∞” value [20] was 7143.3 ± 2165.3 ng^.h/mL, the Cmax [20] was 465.6 ± 94.0 ng/mL and the MRT [20] was 11.6 ± 3.8 h. For the same compound, the t0.5 [20] was 6.6 ± 0.5 h, the tmax [20] was 6.7 ± 2.1 h and the “differences in pharmacokinetic parameters” value (metabolite, rats, imatinib 30 mg/kg IG, l-GT vs h-GT group) was “no significant differences”. For the same compound, the “AUC0∞ metabolite/AUC0∞ drug percentage” value [21] was 3.3%, the “Cmax (metabolite) /Cmax (drug) percentage” value (from here on “Cmax … (drug) percentage”) [21] was 3.4% and the “AUC0∞ metabolite/AUC0∞ drug percentage” value [22] was 6.6%. For the same compound, the “Cmax … (drug) percentage” value [22] was 6.0%, the “AUC0∞ metabolite/AUC0∞ drug percentage” value [23] was 4.0% and the “Cmax … (drug) percentage” value [23] was 3.6%. The “AUC0∞ metabolite/AUC0∞ drug percentage” value [24] was 6.0%, the “Cmax … (drug) percentage” value [24] was 5.3% and the “AUC0∞ metabolite/AUC0∞ drug percentage” value [25] was 7.8%. The “Cmax … (drug) percentage” value [25] was 7.9%, the “AUC0∞ metabolite/AUC0∞ drug percentage” value [26] was 5.5% and the “Cmax … (drug) percentage” value [26] was 5.0%. For the same compound, the “AUC0∞ metabolite/AUC0∞ drug percentage” value [27] was 3.5%, the “Cmax … (drug) percentage” value [27] was 3.2% and the “AUC0∞ metabolite/AUC0∞ drug percentage” value [28] was 6.8%. The “Cmax … (drug) percentage” value [28] was 7.3% and the elimination half-life [6] was 40 h.
For (−)-epicatechin-3-gallate [ECG], the “inhibition of estrone-3-sulfate uptake” value ([1]; concentration of 10 mM) is given as 66.6%.
